Measured values published in paper PMC6643344, “Studying the Possibilities of Using 2-Halogen-Substituted Acetamides As Acyl Donors in Penicillin Acylase-Catalyzed Reactions” (Acta Naturae, 2019).

What follows are compounds tested against T1, penicillin acylase from Escherichia coli (Escherichia coli, UniProt P06875) (assay: first-order inactivation, residual activity with NIPAB at […] nm). Settings: inactivation rate constant (given as kin x 10^4) at 0.1 M compound; 0.1 M potassium phosphate pH 7.5; 25°C; active site, turnover-linked; also a substrate.
T1 construct: gene pac; free enzyme in solution; mature alpha/beta heterodimer cut from one precursor (known biology)
Assay type: biochemical

T1 sequence (P06875 27-235, looked up): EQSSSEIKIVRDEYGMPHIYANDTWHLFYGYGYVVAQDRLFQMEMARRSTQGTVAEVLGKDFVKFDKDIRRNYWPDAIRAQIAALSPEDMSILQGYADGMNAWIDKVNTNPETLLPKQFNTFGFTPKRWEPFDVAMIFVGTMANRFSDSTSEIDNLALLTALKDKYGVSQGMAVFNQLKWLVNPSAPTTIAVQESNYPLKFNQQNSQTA
T1 sequence (P06875 290-846, looked up): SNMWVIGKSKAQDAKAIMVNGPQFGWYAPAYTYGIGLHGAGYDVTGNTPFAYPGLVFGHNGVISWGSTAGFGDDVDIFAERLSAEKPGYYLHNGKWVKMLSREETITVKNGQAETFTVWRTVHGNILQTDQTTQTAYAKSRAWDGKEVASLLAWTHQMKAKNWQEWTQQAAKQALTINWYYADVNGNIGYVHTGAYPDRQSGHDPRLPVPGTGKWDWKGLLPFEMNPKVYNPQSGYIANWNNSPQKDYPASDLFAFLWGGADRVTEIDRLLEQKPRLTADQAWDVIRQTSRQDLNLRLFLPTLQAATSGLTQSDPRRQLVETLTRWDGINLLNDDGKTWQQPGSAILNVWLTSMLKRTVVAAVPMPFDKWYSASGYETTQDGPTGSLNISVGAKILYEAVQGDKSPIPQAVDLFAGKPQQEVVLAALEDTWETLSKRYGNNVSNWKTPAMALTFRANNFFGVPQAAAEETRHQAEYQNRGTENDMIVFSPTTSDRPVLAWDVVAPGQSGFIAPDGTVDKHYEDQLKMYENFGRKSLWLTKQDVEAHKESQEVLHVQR

SMILES	kin.10^4, min^-1
NC(=O)CBr [2-bromoacetamide]	47 ± 2 min^-1
NC(=O)CCl [2-chloroacetamide]	1.1 ± 0.1 min^-1
NC(=O)CI [2-iodoacetamide]	364 ± 34 min^-1
